Usually IC50 stands for the point on the concentration scale where inhibition reaches its midpoint.

The subject of test [1] is HL-60. As to the kind of experiment: Induction of apoptosis in human HL60 cells assessed as activation of procaspase- 9 at 5 to 20 uM after 24 hrs by Western blot. The class given is functional, cell-based. A general note: In western blotting, separated proteins are transferred to a membrane and probed.
Test [2] in a line: Cell cycle arrest in human HL60 cells assessed as accumulation at G2/M phase at 20 uM after 24 hrs by propidium iodide staining based flow cytometry (reference value: 6%). The class given is functional. The settings on record: HL-60.
Test [3] has as its system A549. Nature of the test: Cytotoxicity against human A549 cells assessed as cell growth inhibition at 10 uM after 48 hrs by MTT assay. The class given is functional. The settings on record: A549, 48 h, read-out: GI. Background: Formazan colour is commonly taken as a measure of viable cells.
The test system of test [4] is HL-60. As to the kind of experiment: Induction of mitochondrial potential loss in human HL60 cells after 24 hrs by rhodamine-123 staining based flow cytometry (reference value: 3%). The class given is functional, cell-based. For orientation: Flow cytometry measures light scatter and fluorescence of single cells or particles in a stream.
In test [5] the test system is HL-60. As to the kind of experiment: Induction of mitochondrial potential loss in human HL60 cells at 10 uM after 24 hrs by rhodamine-123 staining based flow cytometry (reference value: 3%). The class given is functional.
A short description of test [6]: Cytotoxicity against human PC3 cells assessed as cell growth inhibition after 48 hrs by MTT assay. The class given is functional, cell-based. To be noted: PC-3, 48 h.
A short description of test [7]: Cytotoxicity against human HL60 cells assessed as cell growth inhibition at 10 uM after 48 hrs by MTT assay. The class given is functional. The settings on record: HL-60, 48 h, read-out: GI.
A short description of test [8]: Cell cycle arrest in human HL60 cells assessed as accumulation at S phase at 20 uM after 24 hrs by propidium iodide staining based flow cytometry (reference value: 48%). The class given is functional. To be noted: HL-60.
For test [9], the system named is HL-60. As to the kind of experiment: Induction of apoptosis in human HL60 cells assessed as activation of caspase- 7 at 5 to 20 uM after 24 hrs by Western blot. The class given is functional, cell-based.
Test [10] has as its system HL-60. Nature of the test: Induction of apoptosis in human HL60 cells at 20 uM after 24 hrs by propidium iodide staining based flow cytometry (reference value: 3%). The class given is functional.
In test [11] the test system is HL-60. Nature of the test: Induction of apoptosis in human HL60 cells assessed as activation of caspase- 3 at 5 to 20 uM after 24 hrs by Western blot. The class given is functional, cell-based.
The nature of test [12]: Cell cycle arrest in human HL60 cells assessed as accumulation at S phase at 10 uM after 24 hrs by propidium iodide staining based flow cytometry (reference value: 48%). The class given is functional. To be noted: HL-60.
Test [13] relates to A549. As to the kind of experiment: Cytotoxicity against human A549 cells assessed as cell growth inhibition after 48 hrs by MTT assay. The class given is functional, cell-based. The settings on record: A549, 48 h.
The test system of test [14] is HL-60. Nature of the test: Induction of apoptosis in human HL60 cells assessed as cleavage of PARP-1 at 5 to 20 uM after 24 hrs by Western blot. The class given is functional, cell-based.
The nature of test [15]: Cytotoxicity against human MIAPaCa2 cells assessed as cell growth inhibition at 10 uM after 48 hrs by MTT assay. The class given is functional. The settings on record: MIA PaCa-2, 48 h, read-out: GI.
Test [16] relates to HL-60. As to the kind of experiment: Induction of apoptosis in human HL60 cells assessed as up regulation of Bax after 24 hrs by Western blot. The class given is functional, cell-based.
A short description of test [17]: Cytotoxicity against human MIAPaCa2 cells assessed as cell growth inhibition after 48 hrs by MTT assay. The class given is functional, cell-based. To be noted: MIA PaCa-2, 48 h.
Test [18] can be described thus: Cytotoxicity against human HL60 cells assessed as cell growth inhibition after 48 hrs by MTT assay. The class given is functional, cell-based. To be noted: HL-60, 48 h.
Test [19] has as its system HL-60. Nature of the test: Induction of apoptosis in human HL60 cells assessed as decrease in Bcl-2/Bax ratio after 24 hrs by Western blot. The class given is functional, cell-based.
Test [20] concerns HL-60. Nature of the test: Induction of mitochondrial potential loss in human HL60 cells at 5 uM after 24 hrs by rhodamine-123 staining based flow cytometry (reference value: 3%). The class given is functional.
Test [21] can be described thus: Cell cycle arrest in human HL60 cells assessed as accumulation at G1 phase at 20 uM after 24 hrs by propidium iodide staining based flow cytometry (reference value: 46%). The class given is functional. To be noted: HL-60.
Test [22] is described as follows: Cytotoxicity against human PC3 cells assessed as cell growth inhibition at 10 uM after 48 hrs by MTT assay. The class given is functional. To be noted: PC-3, 48 h, read-out: GI.
Test [23] can be described thus: Cell cycle arrest in human HL60 cells assessed as accumulation at S phase at 5 uM after 24 hrs by propidium iodide staining based flow cytometry (reference value: 48%). To be noted: HL-60. The class given is functional.
Test [24] in a line: Cell cycle arrest in human HL60 cells assessed as accumulation at G2/M phase at 10 uM after 24 hrs by propidium iodide staining based flow cytometry (reference value: 6%). The class given is functional. The settings on record: HL-60.
The test system of test [25] is HL-60. As to the kind of experiment: Induction of apoptosis in human HL60 cells assessed as down regulation of Bcl-2 after 24 hrs by Western blot. The class given is functional, cell-based.
A short description of test [26]: Cell cycle arrest in human HL60 cells assessed as accumulation at G2/M phase at 5 uM after 24 hrs by propidium iodide staining based flow cytometry (reference value: 6%). The class given is functional. The settings on record: HL-60.
Test [27] deals with HL-60. As to the kind of experiment: Induction of mitochondrial potential loss in human HL60 cells at 20 uM after 24 hrs by rhodamine-123 staining based flow cytometry (reference value: 3%). The class given is functional.
The nature of test [28]: Cell cycle arrest in human HL60 cells assessed as accumulation at G1 phase at 5 uM after 24 hrs by propidium iodide staining based flow cytometry (reference value: 46%). The class given is functional. To be noted: HL-60.
Test [29] relates to HL-60. As to the kind of experiment: Induction of apoptosis in human HL60 cells at 5 uM after 24 hrs by propidium iodide staining based flow cytometry (reference value: 3%). The class given is functional.
Test [30] relates to HL-60. Nature of the test: Induction of apoptosis in human HL60 cells assessed as activation of procaspase- 8 at 5 to 20 uM after 24 hrs by Western blot. The class given is functional, cell-based.
Test [31] concerns HL-60. As to the kind of experiment: Induction of apoptosis in human HL60 cells assessed as activation of caspase- 6 at 5 to 20 uM after 24 hrs by Western blot. The class given is functional, cell-based.
Test [32] deals with HL-60. As to the kind of experiment: Induction of apoptosis in human HL60 cells at 10 uM after 24 hrs by propidium iodide staining based flow cytometry (reference value: 3%). The class given is functional.
The nature of test [33]: Cell cycle arrest in human HL60 cells assessed as accumulation at G1 phase at 10 uM after 24 hrs by propidium iodide staining based flow cytometry (reference value: 46%). The class given is functional. The settings on record: HL-60.

The structures appear in SMILES notation. Active and inactive are the calls of the source. The rule behind the calls is not given here.

Turning to `C=C(C)[C@@H]1CC[C@]2(C(=O)OCc3cn(-c4ccc(F)cc4)nn3)CC[C@]3(C)[C@H](CC[C@@H]4[C@@]5(C)CC[C@H](O)C(C)(C)[C@@H]5CC[C@]43C)[C@@H]12`, the result with HL-60 [1], in the test on HL-60 [9], in the test on HL-60 [11], in the test on HL-60 [14], in the test on HL-60 [16] and in the test with HL-60 [19] was Active. For the same compound, the result in the test with HL-60 [30] and in the test with HL-60 [31] was Active. For the same compound, the Activity was 1% in test [2]; “Dose-dependent effect” in the test with HL-60 [4]; 18% with HL-60 [5]; 9% in [8]; 14% with HL-60 [10]; 44% in test [12]. Also, the Activity in the test with HL-60 [20] was 7%; in test [21], 90%; in [23], 47%; in test [24] it was 3%; in the test with HL-60 [25] it was “Dose-dependent effect”; in test [26], 5%. Moreover, the Activity in the test on HL-60 [27] was 27%; in test [28], 48%; in the test on HL-60 [29] it was 5%; in the test with HL-60 [32], 7%; in test [33], 53%. In addition, the inhibition of growth at 10 µM came out at 63% in the test on A549 [3], 69% in test [7], 75% in test [15] and 62% in test [22]. The IC50 in [6] came out at 7 µM; in the test with A549 [13] it was 7 µM; in [17], 5 µM; in test [18], 7 µM.
`C=C(C)[C@@H]1CC[C@]2(C(=O)OCc3cn(-c4cccc(OC)c4)nn3)CC[C@]3(C)[C@H](CC[C@@H]4[C@@]5(C)CC[C@H](O)C(C)(C)[C@@H]5CC[C@]43C)[C@@H]12`: the inhibition of growth at 10 µM with A549 [3] came to 10%; in test [7], 5%; in [15] it was 28%; in test [22] it was 10%. In addition, the IC50 in test [6] is 25 µM; in the test on A549 [13] it was 25 µM; in test [17], 22 µM; in test [18], 25 µM.
As for `C=C(C)[C@@H]1CC[C@]2(C(=O)O)CC[C@]3(C)[C@H](CC[C@@H]4[C@@]5(C)CC[C@H](O)C(C)(C)[C@@H]5CC[C@]43C)[C@@H]12` [BETULINIC ACID], the inhibition of growth at 10 µM came out at 68% with A549 [3], 69% in [7], 70% in test [15] and 70% in test [22]. Moreover, the IC50 in [6] amounted to 7 µM; in the test on A549 [13] it was 8 µM; in [17], 7 µM; in test [18], 8 µM.
With `C=C(C)[C@@H]1CC[C@]2(C(=O)OCc3cn(-c4cc(F)c(F)cc4Br)nn3)CC[C@]3(C)[C@H](CC[C@@H]4[C@@]5(C)CC[C@H](O)C(C)(C)[C@@H]5CC[C@]43C)[C@@H]12`, the inhibition of growth at 10 µM amounted to 10% in the test with A549 [3], 48% in test [7], 36% in [15] and 17% in test [22]. Further, the IC50 in test [6] is 100 µM; with A549 [13] it was 100 µM; in [17], 27 µM; in test [18] it was 12 µM.
Regarding `C=C(C)[C@@H]1CC[C@]2(C(=O)OCc3cn(-c4ccc(OC)cc4)nn3)CC[C@]3(C)[C@H](CC[C@@H]4[C@@]5(C)CC[C@H](O)C(C)(C)[C@@H]5CC[C@]43C)[C@@H]12`, the inhibition of growth at 10 µM came out at 13% in the test on A549 [3], 8% in test [7], 36% in [15] and 2% in test [22]. Further, the IC50 in [6] is > 100 µM; in the test with A549 [13], > 100 µM; in test [17] it was 22 µM; in test [18] it was 30 µM.

(Values after ChEMBL document CHEMBL3758109, “A novel triazole derivative of betulinic acid induces extrinsic and intrinsic apoptosis in human leukemia HL-60 cells” (Eur J Med Chem, 2016).)
